Measurements as given in patent US8497278B2, “Imidazo[1,2-a]pyridine compounds” (priority 2008, dated 2013).

How the values were obtained:
[1] = target: T1, α1 subtype containing GABA-A receptors (Homo sapiens, UniProt P14867+P18507); experiment: Two-electrode voltage clamp electrophysiology in Xenopus oocytes, potentiation of GABA EC20 response, α1; assay type: cell-based; details: 100 nM compound; for activation at 0.1 µM: read-out: Percentage of potentiation alpha1
T1 construct: expressed in transfected cells; host or cells: Xenopus laevis oocytes, cRNA injected
In short: (§1)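 Potentiation of the GABA EC20 current by 100 nM compound is the read-out, recorded by two-electrode voltage clamp at −80 mV in oocytes carrying human α1, α2, α3 or α5 with β3 and γ2L. Baseline came from three 20-s applications of 60 μM GABA.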

[2] = target: T2, α2 subtype containing GABA-A receptors (Homo sapiens, UniProt P18507+P47869); experiment: Two-electrode voltage clamp electrophysiology in Xenopus oocytes, potentiation of GABA EC20 response, α2; assay type: cell-based; details: 100 nM compound; for activation at 0.1 µM: read-out: Percentage of potentiation alpha2
T2 construct: expressed in transfected cells; host or cells: Xenopus laevis oocytes, cRNA injected
In short: as §1

[3] = test system: Swiss Webster (CFW) mice; experiment: Four Plate Test (FPT); assay type: in vivo; details: mouse, 30 min before test, 2 min session
Description: Four Plate Test (FPT) Protocol: The four plate test (FPT) is an animal model of anxiety in which simple ongoing behavior (exploration of novel surroundings) is suppressed by the delivery of mild electric foot-shock contingent to quadrant crossing (Aron, et al., 1971). Clinically effective classes of anxiolytic compounds such as benzodiazepines, selective serotonin reuptake inhibitors, or 5-HT1A receptor agonists produce a marked anti-punishment effect (an increase in punished crossings), which is thought to indicate anxiolytic activity (Aron, et al., 1971; Bourin, et al., 1992; Hascoet, et al., 2000; Ring, et al., 2006). The four plate apparatus (Bioseb, Chaville France) consists of a cage (18×25×16 cm) floored by four identical rectangular metal plates (8×11 cm) separated from one another by a gap of 4 mm. The plates are connected to a shocker unit that can generate electric foot shocks.
Male Swiss Webster (CFW) mice from Charles River (Wilmington, Mass.) were used for the FPT. Mice were received at 3-weeks of age. Upon receipt, mice were assigned unique identification numbers (tail marked) and were group housed with 4 mice per cage in mouse ventilated racks. All animals remained housed in groups of four during the remainder of the study. All mice were acclimated to the colony room for at least one week prior to testing and were subsequently tested at an average age of 4 weeks of age. During the period of acclimation, mice […] were examined on a regular basis, handled, and weighed to assure adequate healtH, D and suitability. Animals were maintained on a 12/12 light/dark cycle. The room temperature was maintained between 20 and 23° C. with a relative humidity maintained between 30% and 70%. Chow and water were provided ad libitum for the duration of the study. In each test, animals were randomly assigned across treatment groups. Alprazolam (0.3 mg/kg) was used as the positive control. Compounds of the present invention, vehicle (45% hydroxypropyl beta-cyclodextrin) and alprazolam were administered orally to all groups (n=10 mice per group) 30 minutes prior to behavioral testing. Following pretreatment, mice were gently placed in the four plate chamber and allowed to explore the enclosure for 18 seconds. After the exploration period, every time the mouse crossed from one plate to another, the experimenter, blind to the dosing conditions, administered a mild electric foot-shock, and referred to as a punished crossing. The intensity and duration of the foot-shock were 0.5 mA for 0.5 seconds. The number of punished crossings was recorded during the 2 min test session. The plates were thoroughly cleaned with 70% ethanol immediately after each mouse. All data were analyzed using an analysis of variance (ANOVA) followed by Fisher's PLSD post hoc test. An effect was considered significance if p<0.05. Statistical outliers above or below 2 standard deviations from the mean in any of the […] were removed from the final analysis.

T2 sequence (P47869 29-451): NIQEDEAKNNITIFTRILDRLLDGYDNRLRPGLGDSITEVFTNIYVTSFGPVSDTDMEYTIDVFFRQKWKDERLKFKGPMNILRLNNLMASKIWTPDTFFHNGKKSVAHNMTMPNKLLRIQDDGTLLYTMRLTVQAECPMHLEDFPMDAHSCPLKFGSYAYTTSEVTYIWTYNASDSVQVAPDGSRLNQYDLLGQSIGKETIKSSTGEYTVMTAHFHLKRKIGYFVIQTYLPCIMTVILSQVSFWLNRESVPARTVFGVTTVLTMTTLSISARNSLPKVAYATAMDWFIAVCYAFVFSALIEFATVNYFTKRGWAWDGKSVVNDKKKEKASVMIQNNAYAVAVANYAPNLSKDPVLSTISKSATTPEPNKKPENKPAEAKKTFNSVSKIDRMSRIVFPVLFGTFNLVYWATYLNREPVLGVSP
T2 sequence (P28472 26-473 partner): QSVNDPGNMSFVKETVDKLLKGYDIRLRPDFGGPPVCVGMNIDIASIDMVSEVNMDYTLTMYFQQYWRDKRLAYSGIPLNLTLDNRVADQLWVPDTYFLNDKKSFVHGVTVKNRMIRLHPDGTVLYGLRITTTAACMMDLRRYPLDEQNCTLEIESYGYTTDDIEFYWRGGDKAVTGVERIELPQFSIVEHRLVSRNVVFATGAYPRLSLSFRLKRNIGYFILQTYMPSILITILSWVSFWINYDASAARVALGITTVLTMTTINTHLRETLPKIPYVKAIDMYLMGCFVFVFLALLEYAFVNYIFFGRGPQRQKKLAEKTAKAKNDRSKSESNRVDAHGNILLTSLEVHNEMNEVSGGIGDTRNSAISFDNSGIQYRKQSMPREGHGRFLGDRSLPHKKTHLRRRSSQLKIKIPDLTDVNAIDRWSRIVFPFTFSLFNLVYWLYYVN
T2 sequence (P18507 40-475): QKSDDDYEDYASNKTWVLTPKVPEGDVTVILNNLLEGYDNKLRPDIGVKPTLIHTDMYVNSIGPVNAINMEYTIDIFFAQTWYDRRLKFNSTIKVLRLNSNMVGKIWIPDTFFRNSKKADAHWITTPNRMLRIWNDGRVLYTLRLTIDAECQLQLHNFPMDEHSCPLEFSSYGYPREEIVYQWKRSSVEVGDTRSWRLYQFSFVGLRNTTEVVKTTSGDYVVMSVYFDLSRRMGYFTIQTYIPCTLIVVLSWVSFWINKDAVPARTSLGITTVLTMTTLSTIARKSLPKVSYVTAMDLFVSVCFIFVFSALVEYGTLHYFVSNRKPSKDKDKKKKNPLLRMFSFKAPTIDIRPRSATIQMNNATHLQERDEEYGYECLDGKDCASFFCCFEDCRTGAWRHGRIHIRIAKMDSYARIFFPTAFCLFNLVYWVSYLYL
T1 sequence (P14867 28-456): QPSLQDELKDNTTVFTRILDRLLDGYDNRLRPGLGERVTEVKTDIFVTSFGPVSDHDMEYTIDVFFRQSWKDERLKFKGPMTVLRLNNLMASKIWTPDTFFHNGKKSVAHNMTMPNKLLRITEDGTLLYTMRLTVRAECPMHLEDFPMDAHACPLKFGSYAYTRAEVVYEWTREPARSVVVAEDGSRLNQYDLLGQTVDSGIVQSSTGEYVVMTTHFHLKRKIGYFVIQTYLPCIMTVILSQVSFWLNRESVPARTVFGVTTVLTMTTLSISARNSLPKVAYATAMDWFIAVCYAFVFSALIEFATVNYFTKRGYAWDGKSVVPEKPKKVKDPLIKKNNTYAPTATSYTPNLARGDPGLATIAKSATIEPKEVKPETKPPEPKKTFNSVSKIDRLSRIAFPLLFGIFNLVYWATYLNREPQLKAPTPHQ
T1 sequence (P28472 26-473 partner): as the sequence (P28472 26-473 partner) above
T1 sequence (P18507 40-475): as the sequence (P18507 40-475) above

Clc1ccc(-c2nc3cccnn3c2Cn2cncn2)cc1 [Compound 32, 3-((1H-1,2,4-triazol-1-yl)methyl)-2-(4-chlorophenyl)imidazo[1,2-b]pyridazine]
activation at 0.1 µM [1]: 10 to 50% | activation at 0.1 µM [2]: 10 to 50% | Number of Punished Crossings Mean ± S.E.M. ([3]; 3 mg/kg PO): 6.6 ± 0.72 | Number of Punished Crossings Mean ± S.E.M. ([3]; 10 mg/kg PO): 6.6 ± 0.67 | Number of Punished Crossings Mean ± S.E.M. ([3]; 30 mg/kg PO): 5.7 ± 0.94

NC(=O)c1ncn(Cc2c(-c3ccc(Cl)cc3)nc3ccccn23)n1 [Compound 72, 1-((2-(4-chlorophenyl)imidazo[1,2-a]pyridin-3-yl)methyl)-1H-1,2,4-triazole-3-carboxamide]
activation at 0.1 µM [1]: 10 to 50% | activation at 0.1 µM [2]: ≥ 50% | Number of Punished Crossings Mean ± S.E.M. ([3]; 3 mg/kg PO): 5.8 ± 0.63 | Number of Punished Crossings Mean ± S.E.M. ([3]; 10 mg/kg PO): 5.2 ± 0.47 | Number of Punished Crossings Mean ± S.E.M. ([3]; 30 mg/kg PO): 4.8 ± 0.36

Cc1ccn(Cc2c(-c3ccc(Cl)cc3)nc3ccccn23)c(=O)n1 [Compound 105, 1-((2-(4-chlorophenyl)imidazo[1,2-a]pyridin-3-yl)methyl)-4-methylpyrimidin-2(1H)-one]
activation at 0.1 µM [1]: 10 to 50% | activation at 0.1 µM [2]: 10 to 50% | Number of Punished Crossings Mean ± S.E.M. ([3]; 3 mg/kg PO): 6.7 ± 0.34 | Number of Punished Crossings Mean ± S.E.M. ([3]; 10 mg/kg PO): 5.5 ± 0.60 | Number of Punished Crossings Mean ± S.E.M. ([3]; 30 mg/kg PO): 5.6 ± 0.52

Clc1ccc(-c2nc3ccccn3c2Cc2ncn[nH]2)cc1 [Compound 211, 3-((1H-1,2,4-triazol-5-yl)methyl)-2-(4-chlorophenyl)imidazo[1,2-a]pyridine]
activation at 0.1 µM [1]: 10 to 50% | activation at 0.1 µM [2]: ≥ 50% | Number of Punished Crossings Mean ± S.E.M. ([3]; 3 mg/kg PO): 7.8 ± 0.59 | Number of Punished Crossings Mean ± S.E.M. ([3]; 10 mg/kg PO): 8.6 ± 0.85 | Number of Punished Crossings Mean ± S.E.M. ([3]; 30 mg/kg PO): 8.9 ± 0.57

CNC(=O)c1nccn1Cc1c(-c2ccc(Cl)cc2)nc2ccccn12 [Compound 77, 1-((2-(4-chlorophenyl)H-imidazo[1,2-a]pyridin-3-yl)methyl)-N-methyl-1H-imidazole-2-carboxamide]
Percentage of potentiation alpha1 [1]: 0 (percentage of potentiation is between about 10% to about −10%) | Percentage of potentiation alpha2 [2]: + (percentage of potentiation is greater than or equal to 10% but less than 50% in the presence of 100 nM of the compound) | Number of Punished Crossings Mean ± S.E.M. ([3]; 3 mg/kg PO): 4.3 ± 0.26 | Number of Punished Crossings Mean ± S.E.M. ([3]; 10 mg/kg PO): 4.6 ± 0.31 | Number of Punished Crossings Mean ± S.E.M. ([3]; 30 mg/kg PO): 5.0 ± 0.37

Cn1ncnc1Cc1c(-c2ccc(F)cc2)nc2ccc(F)cn12 [Compound 200, 6-fluoro-2-(4-fluorophenyl)-3-((1-methyl-1H-1,2,4-triazol-5-yl)methyl)imidazo[1,2-a]pyridine]
activation at 0.1 µM [1]: 10 to 50% | activation at 0.1 µM [2]: ≥ 50% | Number of Punished Crossings Mean ± S.E.M. ([3]; 3 mg/kg PO): 7.2 ± 0.52 | Number of Punished Crossings Mean ± S.E.M. ([3]; 10 mg/kg PO): 8.6 ± 0.43 | Number of Punished Crossings Mean ± S.E.M. ([3]; 30 mg/kg PO): 7.5 ± 0.39
